Laboratory results reported in patent US20070202116A1, “Treatment of micro-organism infection” (priority 2001, published 2007).
Where two headings read alike, the source gives them in different places.

How the values were obtained:
[1] = tested on: EMRSA strains; assay: MIC of vancomycin or flucloxacillin with and without Aurograb (Table 3a); format: cell-based, S. aureus; settings: Staphylococcus aureus
Protocol: (§1) Strains of MRSA were grown overnight in nutrient broth and diluted to give an inoculum of 1×10^3 cells per mL. […] Cultures were incubated for a further 2 days. The minimum growth-inhibitory concentration (MIC) is defined as the […] concentration of antibiotic at which no bacterial growth occurs and is determined by spectrophotometric evaluation of the lack of turbidity (growth) in culture. MICs were determined in the presence of exogenous Aurograb or in the presence of Aurograb formulation buffer (negative control).
The experiments were also performed using flucloxacillin instead of vancomycin to investigate how the efficacy of penicillin-type […] was affected by Aurograb.

[2] = tested on: MRSA strains (VISA and parent EMRSA-15); assay: MIC of vancomycin in the presence of Aurograb (Table 3); format: cell-based, S. aureus; settings: Staphylococcus aureus
Protocol: as §1

Compound CN[C@H](CC(C)C)C(=O)N[C@H]1C(=O)N[C@@H](CC(N)=O)C(=O)N[C@H]2C(=O)N[C@H]3C(=O)N[C@H](C(=O)N[C@H](C(=O)O)c4cc(O)cc(O)c4-c4cc3ccc4O)[C@H](O)c3ccc(c(Cl)c3)Oc3cc2cc(c3O[C@@H]2O[C@H](CO)[C@@H](O)[C@H](O)[C@H]2O[C@H]2C[C@](C)(N)[C@H](O)[C@H](C)O2)Oc2ccc(cc2Cl)[C@H]1O [Vancomycin, vancomycin] has an MIC ([1]; read-out: MIC to vancomycin + 100 μg/ml Aurograb, EMRSA strain 1, + 100 μg/ml Aurograb) of 0.03 µg/mL, an MIC ([1]; read-out: MIC to vancomycin + 100 μg/ml Aurograb, EMRSA strain 2, + 100 μg/ml Aurograb) of 0.03 µg/mL and an MIC ([1]; read-out: MIC to vancomycin + 100 μg/ml Aurograb, EMRSA strain 3, + 100 μg/ml Aurograb) of 0.03 µg/mL. For the same compound, the MIC ([1]; read-out: MIC to vancomycin + 100 μg/ml Aurograb, EMRSA strain 4, + 100 μg/ml Aurograb) was 0.03 µg/mL, the MIC ([1]; read-out: MIC to vancomycin + 100 μg/ml Aurograb, EMRSA strain 5, + 100 μg/ml Aurograb) was 0.03 µg/mL and the MIC ([1]; read-out: MIC to vancomycin + 100 μg/ml Aurograb, EMRSA strain 6, + 100 μg/ml Aurograb) was 0.0125 µg/mL. The MIC ([1]; read-out: MIC to vancomycin + 100 μg/ml Aurograb, EMRSA strain 7, + 100 μg/ml Aurograb) was 0.03 µg/mL, the MIC ([1]; read-out: MIC to vancomycin + 100 μg/ml Aurograb, EMRSA strain 8, + 100 μg/ml Aurograb) was 0.0125 µg/mL and the MIC ([1]; read-out: MIC to vancomycin + 100 μg/ml Aurograb, EMRSA strain 9, + 100 μg/ml Aurograb) was 0.0125 µg/mL. The MIC ([1]; read-out: MIC to vancomycin + 100 μg/ml Aurograb, EMRSA strain 10, + 100 μg/ml Aurograb) was 0.03 µg/mL, the MIC ([1]; read-out: MIC to vancomycin + 100 μg/ml Aurograb, EMRSA strain 11, + 100 μg/ml Aurograb) was 0.03 µg/mL and the MIC ([1]; read-out: MIC to vancomycin + 100 μg/ml Aurograb, EMRSA strain 12, + 100 μg/ml Aurograb) was 0.03 µg/mL. The MIC ([1]; read-out: MIC to vancomycin + 100 μg/ml Aurograb, EMRSA strain 13, + 100 μg/ml Aurograb) was 0.03 µg/mL, the MIC ([1]; read-out: MIC to vancomycin + 100 μg/ml Aurograb, EMRSA strain 14, + 100 μg/ml Aurograb) was 0.03 µg/mL and the MIC ([1]; read-out: MIC to vancomycin + 100 μg/ml Aurograb, EMRSA strain 15, + 100 μg/ml Aurograb) was 0.03 µg/mL. For the same compound, the MIC ([1]; read-out: MIC to vancomycin + 100 μg/ml Aurograb, EMRSA strain 16, + 100 μg/ml Aurograb) was 0.03 µg/mL, the MIC ([1]; read-out: MIC to vancomycin, EMRSA strain 1) was 0.5 µg/mL and the MIC ([1]; read-out: MIC to vancomycin, EMRSA strain 2) was 0.5 µg/mL. The MIC ([1]; read-out: MIC to vancomycin, EMRSA strain 3) was 0.5 µg/mL, the MIC ([1]; read-out: MIC to vancomycin, EMRSA strain 4) was 0.5 µg/mL and the MIC ([1]; read-out: MIC to vancomycin, EMRSA strain 5) was 0.5 µg/mL. The MIC ([1]; read-out: MIC to vancomycin, EMRSA strain 6) was 0.5 µg/mL, the MIC ([1]; read-out: MIC to vancomycin, EMRSA strain 7) was 0.5 µg/mL and the MIC ([1]; read-out: MIC to vancomycin, EMRSA strain 8) was 0.5 µg/mL. It also gave an MIC ([1]; read-out: MIC to vancomycin, EMRSA strain 9) of 0.5 µg/mL, an MIC ([1]; read-out: MIC to vancomycin, EMRSA strain 10) of 0.5 µg/mL and an MIC ([1]; read-out: MIC to vancomycin, EMRSA strain 11) of 0.5 µg/mL. The MIC ([1]; read-out: MIC to vancomycin, EMRSA strain 12) was 0.5 µg/mL, the MIC ([1]; read-out: MIC to vancomycin, EMRSA strain 13) was 0.5 µg/mL and the MIC ([1]; read-out: MIC to vancomycin, EMRSA strain 14) was 0.25 µg/mL. For the same compound, the MIC ([1]; read-out: MIC to vancomycin, EMRSA strain 15) was 0.5 µg/mL, the MIC ([1]; read-out: MIC to vancomycin, EMRSA strain 16) was 0.5 µg/mL and the MIC ([2]; read-out: MIC to Vancomycin in the presence of Aurograb, Parent EMRSA-15, Aurograb 0 μg/ml) was 1 µg/mL. The MIC ([2]; read-out: MIC to Vancomycin in the presence of Aurograb, Parent EMRSA-15, Aurograb 80 μg/ml) was 0.25 µg/mL, the MIC ([2]; read-out: MIC to Vancomycin in the presence of Aurograb, Parent EMRSA-15, Aurograb 125 μg/ml) was less than 0.125 µg/mL and the MIC ([2]; read-out: MIC to Vancomycin in the presence of Aurograb, VISA EMRSA-1, Aurograb 0 μg/ml) was 8 µg/mL. It also gave an MIC ([2]; read-out: MIC to Vancomycin in the presence of Aurograb, VISA EMRSA-1, Aurograb 60 μg/ml) of 4 µg/mL, an MIC ([2]; read-out: MIC to Vancomycin in the presence of Aurograb, VISA EMRSA-1, Aurograb 80 μg/ml) of 2 µg/mL and an MIC ([2]; read-out: MIC to Vancomycin in the presence of Aurograb, VISA EMRSA-1, Aurograb 125 μg/ml) of less than 0.125 µg/mL. The MIC ([2]; read-out: MIC to Vancomycin in the presence of Aurograb, VISA EMRSA-2, Aurograb 0 μg/ml) was 4 µg/mL, the MIC ([2]; read-out: MIC to Vancomycin in the presence of Aurograb, VISA EMRSA-2, Aurograb 60 μg/ml) was 0.5 µg/mL and the MIC ([2]; read-out: MIC to Vancomycin in the presence of Aurograb, VISA EMRSA-2, Aurograb 80 μg/ml) was 1 µg/mL. The MIC ([2]; read-out: MIC to Vancomycin in the presence of Aurograb, VISA EMRSA-2, Aurograb 125 μg/ml) was less than 0.125 µg/mL, the MIC ([2]; read-out: MIC to Vancomycin in the presence of Aurograb, VISA EMRSA-8, Aurograb 0 μg/ml) was 8 µg/mL and the MIC ([2]; read-out: MIC to Vancomycin in the presence of Aurograb, VISA EMRSA-8, Aurograb 60 μg/ml) was 2 µg/mL. For the same compound, the MIC ([2]; read-out: MIC to Vancomycin in the presence of Aurograb, VISA EMRSA-8, Aurograb 80 μg/ml) was 1 µg/mL, the MIC ([2]; read-out: MIC to Vancomycin in the presence of Aurograb, VISA EMRSA-8, Aurograb 125 μg/ml) was less than 0.125 µg/mL and the MIC ([2]; read-out: MIC to Vancomycin in the presence of Aurograb, VISA EMRSA-11, Aurograb 0 μg/ml) was 4 µg/mL. For the same compound, the MIC ([2]; read-out: MIC to Vancomycin in the presence of Aurograb, VISA EMRSA-11, Aurograb 60 μg/ml) was 4 µg/mL, the MIC ([2]; read-out: MIC to Vancomycin in the presence of Aurograb, VISA EMRSA-11, Aurograb 80 μg/ml) was 1 µg/mL and the MIC ([2]; read-out: MIC to Vancomycin in the presence of Aurograb, VISA EMRSA-11, Aurograb 125 μg/ml) was less than 0.125 µg/mL. The MIC ([2]; read-out: MIC to Vancomycin in the presence of Aurograb, VISA EMRSA-12, Aurograb 0 μg/ml) was 8 µg/mL, the MIC ([2]; read-out: MIC to Vancomycin in the presence of Aurograb, VISA EMRSA-12, Aurograb 60 μg/ml) was 4 µg/mL and the MIC ([2]; read-out: MIC to Vancomycin in the presence of Aurograb, VISA EMRSA-12, Aurograb 80 μg/ml) was 2 µg/mL. It also gave an MIC ([2]; read-out: MIC to Vancomycin in the presence of Aurograb, VISA EMRSA-12, Aurograb 125 μg/ml) of less than 0.125 µg/mL, an MIC ([2]; read-out: MIC to Vancomycin in the presence of Aurograb, VISA EMRSA-15, Aurograb 0 μg/ml) of 8 µg/mL and an MIC ([2]; read-out: MIC to Vancomycin in the presence of Aurograb, VISA EMRSA-15, Aurograb 60 μg/ml) of 4 µg/mL. It also gave an MIC ([2]; read-out: MIC to Vancomycin in the presence of Aurograb, VISA EMRSA-15, Aurograb 80 μg/ml) of 2 µg/mL and an MIC ([2]; read-out: MIC to Vancomycin in the presence of Aurograb, VISA EMRSA-15, Aurograb 125 μg/ml) of less than 0.125 µg/mL.
